Test results published in patent US20140107218A1, “METHODS FOR MAINTAINING EYE HEALTH AND AMELIORATING OPTHALMIC MALADIES IN ANIMALS” (NESTEC SA, priority 2012, published 2014).

Tested on: rabbit lenses
Test: Calcium-induced lens opacification in cultured rabbit lenses, transparency evaluation
Type: cell-based
Conditions: 20 mM CaCl2 plus polyamine 100 mM; for Effect on calcium-induced lens opacification (in words): 72 hours; for Percent Light Transmittance After Treatments (Average): 72 hours of treatment, absorbance at 394 nm, triplicate, Control 73.3, Ca alone 47.3
Experimental: Rabbit eyes were obtained from a rabbit renderer and were dissected within twenty-four (24) hours of the animal's death. The lenses were removed aseptically and cultured in M199 media, 20 mM HEPES, 100 units/ml penicillin, […] streptomycin and 0.1% BSA under 5% CO2 at 37° C. in a humidified incubator for twenty-four hours before the start of treatment. Lens opacification was induced with 20 mM CaCl2, according to the method of Hytower and Dering (Hightower Kr, Dering, M (1984) Invest Ophthalmol Vis Sci 251:108-111). Polyamines were added at a concentration of 100 mM. All experiments were done in triplicate.
Transparency Evaluation: When proteins are modified or oxidized they aggregate, and cause protein solutions to become cloudy or translucent because the proteins lose solubility. The turbidity of a protein solution is a measure of protein aggregation. Turbidity of the lenses after treatment was determined by measuring the increase in protein absorbency. Control (no Ca++), Ca++ and Ca++ with polyamines spermidine, spermine, or putrescine were collected and homogenized in lysis buffer [50 mM Tris-HCl, pH 8.0; 150 mM NaCl, 1% Igepal and protease inhibitor cocktail (Sigma)] after seventy-two (72) hours of treatment. Absorbance was measured at 394 nm for each sample using a spectrophotometer. Transparency was calculated as a function of the percent transmittance according to Jain (Jain Ak, Lim G, Langford M, Jain Sk (2002) Free Radic Biol Med 33:1615-1621).

NCCCCNCCCN [Spermidine, spermidine]
Effect on calcium-induced lens opacification (in words): reduce calcium-induced lens opacification
Percent Light Transmittance After Treatments (Average): 56.8%

NCCCCN [Putrescine, putrescine]
Effect on calcium-induced lens opacification (in words): reduce calcium-induced lens opacification
Percent Light Transmittance After Treatments (Average): 65.7%

NCCCNCCCCNCCCN [Spermine, spermine]
Percent Light Transmittance After Treatments (Average): 53%
